In data set [1] the test system is U937 cells. Description: Cytotoxicity (MTT uptake) of guggulsterone with JNK inhibitor. The format is cell-based, human. The note with it: 72 h. As for the experimental part: Cytotoxicity assay. The cytotoxic effects of guggulsterone was determined by the MTT uptake method. Briefly, 5000 cells were incubated with guggulsterone in triplicate in a 96-well plate at 37° C. MTT solution was then added to each well. After a 2-h incubation at 37° C., extraction buffer (20% SDS, 50% dimethylformamide) was added, the cells were incubated overnight at 37° C., and the OD was then measured at 570 nm using a 96-well multiscanner (Dynex Technologies, MRX Revelation, Chantilly, Va.).

For data set [2], the target named is NF-κB p65 subunit (RelA) in nuclear extracts of TNF-treated human H1299 cells (human, UniProt Q04206 1-551). Description: EMSA supershift assay, nuclear extracts of TNF-treated H1299 cells. As for the experimental part: Nuclear extracts were prepared and tested for NF-κB activation. […] H1299 cells (2×10⁶/ml) were pre-incubated with 50 μM guggulsterone for the indicated times at 37° C. and then treated with 0.1 nM TNF for 30 min at 37° C. Nuclear extracts were prepared and then tested for NF-κB activation. […] Nuclear extracts from H1299 cells (2×10⁶/ml) treated or not treated with 0.1 nM TNF for 30 min were incubated with the antibodies indicated for 30 min at room temperature, and the complex was analyzed by supershift assay. […] Nuclear extracts from H1299 cells (2×10⁶/ml) treated or not treated with 0.1 nM TNF for 30 min were treated with the indicated concentrations of guggulsterone for 4 hours at room temperature and then assayed for DNA binding by EMSA.
NF-κB Activation: To determine NF-κB activation, EMSA was carried out as previously described (Chaturvedi et al., 2000). […] For supershift assays, nuclear extracts prepared from TNF-treated cells were incubated with antibodies against either the p50 or the p65 subunit of NF-κB for 30 min at room temperature before the complex was analyzed by EMSA. The dried gels were visualized, and radioactive bands were quantitated using a PHOSPHORIMAGER™ (Molecular Dynamics, Sunnyvale, Calif.) using IMAGEQUANT™ software.

NF-κB p65 subunit (RelA) in nuclear extracts of TNF-treated human H1299 cells, sequence (Q04206 whole entry): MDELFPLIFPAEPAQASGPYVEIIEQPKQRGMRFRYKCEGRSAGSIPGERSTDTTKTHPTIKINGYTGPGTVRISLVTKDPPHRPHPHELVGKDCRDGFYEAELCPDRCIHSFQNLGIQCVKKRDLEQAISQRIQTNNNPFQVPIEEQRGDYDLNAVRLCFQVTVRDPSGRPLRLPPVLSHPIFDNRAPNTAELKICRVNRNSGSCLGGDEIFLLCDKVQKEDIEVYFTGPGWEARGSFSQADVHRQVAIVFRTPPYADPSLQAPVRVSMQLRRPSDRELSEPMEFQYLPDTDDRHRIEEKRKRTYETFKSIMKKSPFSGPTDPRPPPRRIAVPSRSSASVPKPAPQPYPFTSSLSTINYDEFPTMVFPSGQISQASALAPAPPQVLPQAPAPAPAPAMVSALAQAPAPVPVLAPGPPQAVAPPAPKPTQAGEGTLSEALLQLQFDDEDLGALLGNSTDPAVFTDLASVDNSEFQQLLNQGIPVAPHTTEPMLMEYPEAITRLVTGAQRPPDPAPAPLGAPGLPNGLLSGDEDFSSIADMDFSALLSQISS

`Oc1c2ccccc2c2c3c(cccc13)N=N2` [SP600125]: in data set [1], the “guggulsterone induced cytotoxicity in combination with JNK inhibitor” value is reported as “blocks guggulsterone induced cytotoxicity”.

B1: NF-κB p50 subunit (NF-κB1) in nuclear extracts of TNF-treated human H1299 cells (other, UniProt P19838 1-433, looked up)
chain: MAEDDPYLGRPEQMFHLDPSLTHTIFNPEVFQPQMALPTDGPYLQILEQPKQRGFRFRYVCEGPSHGGLPGASSEKNKKSYPQVKICNYVGPAKVIVQLVTNGKNIHLHAHSLVGKHCEDGICTVTAGPKDMVVGFANLGILHVTKKKVFETLEARMTEACIRGYNPGLLVHPDLAYLQAEGGGDRQLGDREKELIRQAALQQTKEMDLSVVRLMFTAFLPDSTGSFTRRLEPVVSDAIYDSKAPNASNLKIVRMDRTAGCVTGGEEIYLLCDKVQKDDIQIRFYEEEENGGVWEGFGDFSPTDVHRQFAIVFKTPKYKDINITKPASVFVQLRRKSDLETSEPKPFLYYPEIKDKEEVQRKRQKLMPNFSDSFGGGSGAGAGGGGMFGSGGGGGGTGSTGPGYSFPHYGFPTYGGITFHPGTTKSNAGMKHG
With B1, the binding result in data set [2] was “binds”.

Values taken from patent US20060019907A1, “Guggulsterone: an inhibitor of nuclear factor - kappaB and IkappaBalpha kinase activation and uses thereof” (Research Development Foundation, priority 2004, published 2006).
